In PubChem BioAssay AID342 (DTP/NCI, 2004):
Where “and” joins values, the source holds several entries; their conditions need not be identical. Identical values can stand only once. Square brackets hold non-standard residues; d marks the D form. Peptide text beside a SMILES is read from it. ξ: configuration not given here. Ac5c = NC1(C(=O)O)CCCC1; ξS = NC(CO)C(=O)O

System: Swiss mice, Sarcoma 180 sc, mean tumor weight T/C
Assay: NCI In Vivo Anticancer Drug Screen. Data for tumor model Sarcoma 180 (subcutaneous) in Swiss mice
Conditions: endpoint: mean tumor weight, higher = larger tumour
Summary of the method: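 T/C ratio: treated over vehicle-treated controls, measuring survival or tumor size in transplanted-tumor mice.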

[1] = dose: 200.0 mg/kg/injection, schedule: Q01DX007 (ip), vehicle: carboxymethylcellulose (CMC)
[2] = dose: 225.0 mg/kg/injection, schedule: Q01DX007 (ip), vehicle: saline

Q: Which results are given for `CCOC(=O)C1=C(C)NC(C)=C(C(=O)OCC)C1C`?
A: T/C (dose: 3.1 mg/kg/injection, schedule: Q01DX007 (ip), vehicle: other): 50 % of control; T/C (dose: 6.25 mg/kg/injection, schedule: Q01DX007 (ip), vehicle: other): 33 % of control; T/C (dose: 31.2 mg/kg/injection, schedule: Q01DX007 (ip), vehicle: other): 42 % of control; T/C (dose: 31.25 mg/kg/injection, schedule: Q01DX007 (ip), vehicle: other): 60 % of control; T/C (dose: 62.5 mg/kg/injection, schedule: Q01DX007 (oral), vehicle: other): 57 % of control; T/C (dose: 62.5 mg/kg/injection, schedule: Q01DX007 (sc), vehicle: other): 98 % of control; T/C (dose: 62.5 mg/kg/injection, schedule: Q02DX004 (ip), vehicle: other): 60 % of control; T/C (dose: 62.5 mg/kg/injection, schedule: Q03DX003 (ip), vehicle: other): 60 % of control; T/C (dose: 100.0 mg/kg/injection, schedule: Q01DX007 (ip), vehicle: other): 69 % of control; T/C (dose: 125.0 mg/kg/injection, schedule: Q01DX007 (oral), vehicle: other): 84 % of control; T/C (dose: 125.0 mg/kg/injection, schedule: Q01DX007 (sc), vehicle: other): 57 % of control; T/C (dose: 125.0 mg/kg/injection, schedule: Q02DX004 (ip), vehicle: other): 50 % of control; T/C (dose: 125.0 mg/kg/injection, schedule: Q03DX003 (ip), vehicle: other): 60 % of control; T/C (dose: 175.0 mg/kg/injection, schedule: Q01DX007 (ip), vehicle: other): 29 % of control; T/C (dose: 250.0 mg/kg/injection, schedule: Q01DX007 (oral), vehicle: other): 76 % of control; T/C (dose: 250.0 mg/kg/injection, schedule: Q01DX007 (sc), vehicle: other): 60 % of control; T/C (dose: 250.0 mg/kg/injection, schedule: Q02DX004 (ip), vehicle: other): 36 % of control; T/C (dose: 250.0 mg/kg/injection, schedule: Q03DX003 (ip), vehicle: other): 54 % of control

Q: `COc1cccc2c1C(=O)c1c(O)c3c(c(O)c1C2=O)C[C@@](O)(C(C)=O)C[C@@H]3OC1CC(N)C(O)C(C)O1` (stereo partly drawn) was tested. Which T/C (dose: 1.0 mg/kg/injection, schedule: Q01DX007 (sc), vehicle: steriod suspending solution) did it give?
A: The T/C was 86 % of control.

Q: And the T/C (dose: 5.0 mg/kg/injection, schedule: Q01DX007 (sc), vehicle: steriod suspending solution)?
A: The T/C was 54 % of control and 42 % of control.

Q: Which results are given for `CCOC(=O)C(CO)NC(=O)C1(NC(C)=O)CCCC1` (stereo not drawn) (Ac-[Ac5c]-[ξS]-OEt)?
A: T/C (dose: 66.0 mg/kg/injection, schedule: Q01DX007 (ip), vehicle: water): 97 % of control; T/C (dose: 100.0 mg/kg/injection, schedule: Q01DX007 (ip), vehicle: water): 94 % of control; T/C (dose: 150.0 mg/kg/injection, schedule: Q01DX007 (ip), vehicle: water): 83 % of control; T/C (dose: 225.0 mg/kg/injection, schedule: Q01DX007 (ip), vehicle: water): 74 % of control

Q: What does the source list for `CC(=O)OCC(=O)C1(O)C(C)CC2C3C=C(C)C4=Cc5c(cnn5-c5ccccc5)CC4(C)C3C(O)CC21C` (stereo not drawn)?
A: T/C (dose: 0.16 mg/kg/injection, schedule: Q01DX007 (sc), vehicle: steriod suspending solution): 115 % of control; T/C (dose: 0.25 mg/kg/injection, schedule: Q01DX007 (sc), vehicle: steriod suspending solution): 39 % of control and 42 % of control; T/C (dose: 8.0 mg/kg/injection, schedule: Q01DX007 (sc), vehicle: steriod suspending solution): 15 % of control

Q: `CCCCn1cnc2c(=S)nc[nH]c21` was tested. Which T/C (dose: 12.5 mg/kg/injection, schedule: Q01DX007 (ip), vehicle: carboxymethylcellulose (CMC)) did it give?
A: The T/C was 77 % of control.

Q: And the T/C (dose: 25.0 mg/kg/injection, schedule: Q01DX007 (ip), vehicle: carboxymethylcellulose (CMC))?
A: The T/C was 53 % of control.

Q: What about the T/C (dose: 50.0 mg/kg/injection, schedule: Q01DX007 (ip), vehicle: carboxymethylcellulose (CMC)) of the same molecule?
A: Its T/C is 63 % of control.

Q: And the T/C (dose: 100.0 mg/kg/injection, schedule: Q01DX007 (ip), vehicle: carboxymethylcellulose (CMC))?
A: Its T/C is 29 % of control.

Q: How did the T/C (dose: 19.87 mg/kg/injection, schedule: Q#A X014 (ip), vehicle: carboxymethylcellulose (CMC)) turn out when `CNC=O` was run?
A: The T/C was 107 % of control.

Q: What about the T/C (dose: 39.75 mg/kg/injection, schedule: Q#A X014 (ip), vehicle: carboxymethylcellulose (CMC)) of the same molecule?
A: The T/C was 67 % of control.

Q: And the T/C (dose: 79.5 mg/kg/injection, schedule: Q#A X014 (ip), vehicle: carboxymethylcellulose (CMC))?
A: Its T/C is 23 % of control.

Q: What about the T/C (dose: 100.0 mg/kg/injection, schedule: Q#A X014 (ip), vehicle: saline) of the same molecule?
A: The T/C was 20 % of control.

Q: What about the T/C (dose: 120.0 mg/kg/injection, schedule: Q01DX007 (ip), vehicle: carboxymethylcellulose (CMC)) of the same molecule?
A: The T/C was 19 % of control.

Q: And the T/C (dose: 125.0 mg/kg/injection, schedule: Q01DX007 (ip), vehicle: saline)?
A: The T/C was 8 % of control and 12 % of control.

Q: And the T/C (dose: 150.0 mg/kg/injection, schedule: Q01DX007 (ip), vehicle: carboxymethylcellulose (CMC))?
A: Its T/C is 16 % of control.

Q: And the T/C (dose: 150.0 mg/kg/injection, schedule: Q01DX007 (ip), vehicle: saline)?
A: Its T/C is 4 % of control and 7 % of control.

Q: What about the T/C (dose: 159.0 mg/kg/injection, schedule: Q#A X014 (ip), vehicle: carboxymethylcellulose (CMC)) of the same molecule?
A: The T/C was 8 % of control.

Q: And the T/C (dose: 175.0 mg/kg/injection, schedule: Q01DX007 (ip), vehicle: saline)?
A: The T/C was 1 % of control and 5 % of control.

Q: And the T/C [1]?
A: Its T/C is 9 % of control.

Q: What about the T/C (dose: 200.0 mg/kg/injection, schedule: Q01DX007 (ip), vehicle: saline) of the same molecule?
A: Its T/C is 2 % of control and 3 % of control and 26 % of control.

Q: What about the T/C [2] of the same molecule?
A: The T/C was 1 % of control and 3 % of control.

Q: And the T/C (dose: 250.0 mg/kg/injection, schedule: Q01DX007 (ip), vehicle: saline)?
A: The T/C was 1 % of control and 2 % of control.

Q: And the T/C (dose: 275.0 mg/kg/injection, schedule: Q01DX007 (ip), vehicle: saline)?
A: The T/C was 1 % of control.

Q: What about the T/C (dose: 325.0 mg/kg/injection, schedule: Q01DX007 (ip), vehicle: saline) of the same molecule?
A: Its T/C is 1 % of control.

Q: What about the T/C (dose: 400.0 mg/kg/injection, schedule: Q01DX007 (ip), vehicle: saline) of the same molecule?
A: The T/C was 24 % of control.

Q: `O=[N+]([O-])c1ccc(/C=N\Nc2ccc([N+](=O)[O-])cn2)cc1` was tested. Which T/C (dose: 5.1 mg/kg/injection, schedule: Q#A X014 (ip), vehicle: methylcellulose (MC)) did it give?
A: Its T/C is 88 % of control.

Q: And the T/C (dose: 10.25 mg/kg/injection, schedule: Q#A X014 (ip), vehicle: methylcellulose (MC))?
A: The T/C was 61 % of control.

Q: What about the T/C (dose: 12.0 mg/kg/injection, schedule: Q#A X014 (ip), vehicle: methylcellulose (MC)) of the same molecule?
A: Its T/C is 98 % of control.

Q: And the T/C (dose: 20.55 mg/kg/injection, schedule: Q#A X014 (ip), vehicle: methylcellulose (MC))?
A: Its T/C is 64 % of control.

Q: What about the T/C (dose: 41.1 mg/kg/injection, schedule: Q#A X014 (ip), vehicle: methylcellulose (MC)) of the same molecule?
A: The T/C was 47 % of control.

Q: With `CC(CN)CCC(C)(O)C(N)=O` (stereo not drawn) as the molecule, how does the T/C (dose: 83.0 mg/kg/injection, schedule: Q#A X014 (ip), vehicle: methylcellulose (MC)) read?
A: The T/C was 63 % of control.

Q: And the T/C (dose: 125.0 mg/kg/injection, schedule: Q#A X014 (ip), vehicle: methylcellulose (MC))?
A: The T/C was 49 % of control.

Q: And the T/C (dose: 187.5 mg/kg/injection, schedule: Q#A X014 (ip), vehicle: methylcellulose (MC))?
A: Its T/C is 47 % of control.

Q: Which T/C (dose: 60.0 mg/kg/injection, schedule: Q01DX007 (ip), vehicle: carboxymethylcellulose (CMC)) does the source give for `CCCCOC(=O)C1(N)CCCC1` here?
A: Its T/C is 72 % of control.

Q: And the T/C (dose: 90.0 mg/kg/injection, schedule: Q01DX007 (ip), vehicle: carboxymethylcellulose (CMC))?
A: Its T/C is 72 % of control.

Q: What about the T/C (dose: 135.0 mg/kg/injection, schedule: Q01DX007 (ip), vehicle: carboxymethylcellulose (CMC)) of the same molecule?
A: Its T/C is 33 % of control.

Q: And the T/C (dose: 148.0 mg/kg/injection, schedule: Q01DX007 (ip), vehicle: saline)?
A: Its T/C is 54 % of control.

Q: And the T/C [1]?
A: The T/C was 12 % of control.

Q: What about the T/C (dose: 202.0 mg/kg/injection, schedule: Q01DX007 (ip), vehicle: carboxymethylcellulose (CMC)) of the same molecule?
A: Its T/C is 33 % of control.

Q: What about the T/C [2] of the same molecule?
A: The T/C was 33 % of control.

Q: What about the T/C (dose: 336.0 mg/kg/injection, schedule: Q01DX007 (ip), vehicle: saline) of the same molecule?
A: Its T/C is 11 % of control.

Q: For `CC(=O)[C@H]1CC[C@H]2[C@@H]3CCC4=CC(=O)[C@H](C)C[C@]4(C)[C@H]3C(=O)C[C@]12C`, which T/C (dose: 50.0 mg/kg/injection, schedule: Q#A X014 (oral), vehicle: steriod suspending solution) is on record?
A: Its T/C is 97 % of control.

Q: What about the T/C (dose: 125.0 mg/kg/injection, schedule: Q#A X014 (oral), vehicle: steriod suspending solution) of the same molecule?
A: Its T/C is 68 % of control.

Q: And the T/C (dose: 250.0 mg/kg/injection, schedule: Q#A X014 (oral), vehicle: steriod suspending solution)?
A: Its T/C is 63 % of control.

Q: How did the T/C (dose: 56.0 mg/kg/injection, schedule: Q01DX007 (ip), vehicle: carboxymethylcellulose (CMC)) turn out when `Nc1nc(SCc2ccccc2)c2ncn(CCCl)c2n1` was run?
A: The T/C was 36 % of control and 55 % of control.

Q: And the T/C (dose: 83.0 mg/kg/injection, schedule: Q01DX007 (ip), vehicle: carboxymethylcellulose (CMC))?
A: The T/C was 35 % of control and 41 % of control.

Q: What about the T/C (dose: 125.0 mg/kg/injection, schedule: Q01DX007 (ip), vehicle: carboxymethylcellulose (CMC)) of the same molecule?
A: Its T/C is 12 % of control and 18 % of control.

Q: Which T/C (dose: 1.3 mg/kg/injection, schedule: Q#A X014 (ip), vehicle: saline) does the source give for `CN1C=c2c3c(ccc2=C2C=CC4C=C5OCOC5=CC4=C21)OCO3` (stereo not drawn) here?
A: The T/C was 105 % of control.

Q: And the T/C (dose: 2.0 mg/kg/injection, schedule: Q#A X014 (ip), vehicle: saline)?
A: Its T/C is 82 % of control.

Q: What about the T/C (dose: 3.0 mg/kg/injection, schedule: Q#A X014 (ip), vehicle: saline) of the same molecule?
A: Its T/C is 79 % of control and 96 % of control.

Q: What about the T/C (dose: 10.0 mg/kg/injection, schedule: Q#A X014 (ip), vehicle: saline) of the same molecule?
A: The T/C was 28 % of control.

Q: And the T/C (dose: 12.0 mg/kg/injection, schedule: Q#A X014 (oral), vehicle: saline)?
A: The T/C was 84 % of control.

Q: And the T/C (dose: 18.0 mg/kg/injection, schedule: Q#A X014 (oral), vehicle: saline)?
A: The T/C was 70 % of control.

Q: And the T/C (dose: 27.0 mg/kg/injection, schedule: Q#A X014 (oral), vehicle: saline)?
A: Its T/C is 73 % of control.

Q: What about the T/C (dose: 60.0 mg/kg/injection, schedule: Q#A X014 (oral), vehicle: saline) of the same molecule?
A: The T/C was 53 % of control.
